Test system: T1, horseradish peroxidase (HRP)
T1 construct: gene PRXC1A; native enzyme, free in solution
Test: guaiacol oxidation assay, spectrophotometric, Michaelis-Menten fit
Type: biochemical, Armoracia rusticana
Conditions: native free enzyme; co-substrate hydrogen peroxide
From the text: guaiacol oxidation assay, spectrophotometric, Michaelis-Menten fit on horseradish peroxidase (HRP)

Km: 1560 ± 80 µM
Structure (SMILES): COc1ccccc1O [guaiacol]
